Read-outs that look alike come from different tables or passages of the source.
Experiments:
[1] = system: DU145; assay: Alamar Blue cell viability assay, DU145; conditions: Homo sapiens, DU-145, 48 h, read-out: DU145 IC50
[2] = system: primary human dental bulb cells (ND); assay: Alamar Blue cell viability, normal primary dental cells; conditions: 48 hours, Mean ± SEM
[3] = system: PC3 and DU145; assay: Alamar Blue cell viability, AR-negative PCa cell lines (stated for both); conditions: Homo sapiens, DU-145, read-out: IC50 against PC3 and DU145 cell lines
[4] = system: DU145; assay: Cell cycle analysis (PI flow cytometry), DU145; format: cell-based, human; conditions: DU145, 48 hours; not statistically significant (P>0.05)
Procedure: Cells were seeded in 100 mm Petri dishes at a density of 1.5 million cells/dish and incubated in RPMI supplemented with 10% FBS overnight at 37° C. Complete culture media was then removed, and cells were starved in serum serum-free for 16 hours to synchronize cells at the G0/G1 phase of the cell cycle. Subsequently, cells were treated with the compounds 13, 15, and 16 or docetaxel for 48 hours. After treatment, floating and adherent cells were collected, washed with ice-cold PBS and centrifuged at 500 g for 10 minutes at 4° C. Next, cells were fixed with ice-cold 70% ethanol added drop wisely while vertexing and stored at −20° C. for at least 24 hours. On the day of analysis, cells were pelleted (centrifuged at 800 g for 10 minutes at 4° C.), washed twice with ice-cold PBS and counted. Around one million cells of each sample were resuspended in 500 μl of FxCycle PI/RNase Staining Solution® (Thermo Fisher Scientific, USA) supplemented with 200 μg/ml RNase and incubated for 50 minutes at 37° C. in a shaking water bath, protected from light. Following incubation, cells were immediately analyzed by BD FACSAria™ II Flow Cytometer, at least 50,000 events were acquired for each sample. The proportion of cells in each cell cycle phase: […]

[5] = system: PC3 and DU145; assay: Wound healing assay, PC3 and DU145; conditions: both cell lines; significant from 5 μM in PC3
[6] = system: Bax, Bcl-2; assay: Western blot of apoptosis-related proteins in PC3 and DU145; conditions: PC3 and DU145, 48 hours of treatment
[7] = system: PC3; assay: Alamar Blue cell viability assay, PC3; conditions: for IC50: read-out: PC3 IC50, 48 hours, Mean ± SEM of three independent experiments
[8] = system: PC3 and DU145; assay: Soft agar colony formation assay, PC3 and DU145 (stated for both); format: cell-based, human; conditions: 5 and 10 μM, 14 days, both cell lines
Procedure: Anchorage-independent growth, a characteristic of transformed cells that correlate with in vivo tumorigenic potential, was assessed by soft agar assay. First, a 2% noble agar (Sigma-Aldrich) stock solution was prepared in deionized and autoclaved water. […] After 14 days, the average number of colonies in each well was counted manually under the microscope and confirmed by ImageJ; only colonies with an area larger than […] were counted to avoid the inclusion of non-proliferating dead cells. Besides, the size of colonies in each treatment condition was measured by ImageJ from at least six random fields per well.

[9] = system: C4-2 and LNCaP; assay: Morphological examination, AR-positive PCa cell lines; format: cell-based
Procedure: Cells were seeded in 6 wells plate at a density of 150,000-200,000 cells/well and were incubated overnight. […] Morphological changes were monitored using a DMi8 inverted microscope (Leica, Germany) and images were captured with a Leica MC170 HD camera.

[10] = system: JNK1/2/3, ERK1/2, Akt; assay: Western blot of JNK, ERK and AKT-related biomarkers in PC3; conditions: PC3 cell line
[11] = system: MCF 10A; assay: Alamar Blue cell viability, normal breast epithelial cell line
[12] = system: MDA-MB-231 and MDA-MB-436; assay: Alamar Blue cell viability, TNBC cell lines (stated for both); format: cell-based; conditions: Homo sapiens
Source text: (§1) Besides, the effect of these analogs was compared to docetaxel, a first-line chemotherapy, as a positive control.

[13] = system: MDA-MB-231 and MDA-MB-436; assay: Soft agar colony formation assay, TNBC cell lines; format: cell-based, human; conditions: 28 days
[14] = system: MDA-231 and MDA-436; assay: Morphological examination, TNBC cell lines; format: cell-based, human; conditions: 24 and 48 hours post treatment
Procedure: Cells were seeded in 6 wells plate at a density of 150,000-200,000 cells/well and were incubated overnight. Then, cells were treated with the synthesized compounds at 5-10 μM concentration for 48 hours. Morphological changes were monitored using a DMi8 inverted microscope (Leica, Germany) and images were captured with a Leica MC170 HD camera.

[15] = system: MDA-MB-231; assay: Alamar Blue cell viability assay, MDA-MB-231; format: cell-based; conditions: Homo sapiens, Mean ± SEM, read-out: IC50 against MDA-MB-231
Source text: as §1

[16] = system: MDA-MB-436; assay: Alamar Blue cell viability assay, MDA-MB-436; format: cell-based; conditions: Homo sapiens, Mean ± SEM, read-out: IC50 against MDA-MB-436
Source text: as §1

[17] = system: MDA-MB-231; assay: Wound healing assay, MDA-MB-231; format: cell-based, human
[18] = system: MCF 10A; conditions: selectivity index
[19] = system: PC3 and DU145; assay: Cell cycle analysis (PI flow cytometry), PC3 and DU145; format: cell-based, human; conditions: 48 hours
Procedure: The compounds' effect on cell cycle distribution of PC3 and DU145 was assessed by flow cytometry using propidium iodide (PI). Cells were seeded in 100 mm Petri dishes at a density of 1.5 million cells/dish and incubated in RPMI supplemented with 10% FBS overnight at 37° C. Complete culture media was then removed, and cells were starved in serum serum-free for 16 hours to synchronize cells at the G0/G1 phase of the cell cycle. Subsequently, cells were treated with the compounds 13, 15, and 16 or docetaxel for 48 hours. After treatment, floating and adherent cells were collected, washed with ice-cold PBS and centrifuged at 500 g for 10 minutes at 4° C. Next, cells were fixed with ice-cold 70% ethanol added drop wisely while vertexing and stored at −20° C. for at least 24 hours. On the day of analysis, cells were pelleted (centrifuged at 800 g for 10 minutes at 4° C.), washed twice with ice-cold PBS and counted. […] Following incubation, cells were immediately analyzed by BD FACSAria™ II Flow Cytometer, at least 50,000 events were acquired for each sample. The proportion of cells in each cell cycle phase: G1, S and G2-M was determined using FlowJo software based on cells' DNA content as represented by histograms of PI signal intensity.

[20] = range over both TNBC cell lines, read-out: IC50 against MDA-MB-231 and MDA-MB-436 cell lines

SMILES	IC50 [1] [µM]	ND LD50 [2] [µM]	IC50 [3] [µM]	effect on cell cycle distribution [4]	wound closure [5]	Bax/Bcl-2 expression [6]	IC50 [7] [µM]	IC50 [12, 20] [µM]	colony formation in soft agar (number and size) [13]	effect on cell morphology [14]	IC50 ([15]; 24 hrs. post treatment) [µM]	IC50 ([15]; 48 hrs. post treatment) [µM]	IC50 ([16]; 24 hrs. post treatment) [µM]	IC50 ([16]; 48 hrs. post treatment) [µM]	further results
COc1cc2c(cc1OC)C(=O)/C(=C/c1ccc(-c3ccsc3)nc1)CC2 [Compound 13, (E)-6,7-dimethoxy-2-((6-(thiophen-3-yl)pyridin-3-yl)methylene)-3,4-dihydronaphthalen-1 (2H)-one]	5.63 ± 1.07	>50.0	4.32 to 6.47	slight accumulation in G2/M and sub G1 phases	dose-dependent reduction in wound closure	significant increase in Bax/Bcl-2 ratio	5.6 ± 0.38	–	–	–	–	–	–	–	colony formation in soft agar (number and size) [8]: significant reduction in both the total number of colonies and average colony size; effect on cell morphology [9]: lose their shape, shrink in size, and increased cell death
COc1ccc2c(c1)C(=O)/C(=C/c1cccc(-c3ccsc3)n1)CC2 [Compound 15, (E)-7-methoxy-2-((6-(thiophen-3-yl)pyridin-2-yl)methylene)-3,4-dihydronaphthalen-1 (2H)-one]	6.47 ± 0.57	>50.0	4.32 to 6.47	slight accumulation in G2/M and sub G1 phases	dose-dependent reduction in wound closure	significant increase in Bax/Bcl-2 ratio	6.6 ± 0.49	–	–	–	–	–	–	–	expression of JNK1/2/3, ERK1/2, Akt and phosphorylated forms [10]: reduced the expression of JNK1/2/3, p-ERK1/2, Akt and p-Akt
COc1ccccc1C(=O)/C=C/c1cccc(-c2ccsc2)n1 [Compound 17, (E)-1-(2-methoxyphenyl)-3-(6-(thiophen-3-yl)pyridin-2-yl) prop-2-en-1-one]	–	–	–	–	–	–	–	0.87 to 3.2	significant reduction in both the total number of colonies and average colony size	lose their shape, shrink in size, form apoptotic bodies, and increased cell death	3.6 ± 0.5	3.2	3.2 ± 0.2	1.6	selectivity versus normal cells (MCF10a) [11]: greater selectivity towards cancerous cell lines; reduction in cell viability of PC3 ([7]; 2.5 μM): 84.7%; cell migration of MDA-MB-231 (wound healing) [17]: significantly reduced cell migration
CS(=O)(=O)c1ccc(C(=O)/C=C/c2cccc(-c3ccsc3)n2)cc1 [Compound 23, (E)-1-(4-(methylsulfonyl)phenyl)-3-(6-(thiophen-3-yl)pyridin-2-yl) prop-2-en-1-one]	–	–	–	–	–	–	–	–	significant reduction in both the total number of colonies and average colony size	–	–	–	–	–	–
O=C(/C=C/c1cccc(-c2ccsc2)n1)c1ccccc1C(F)(F)F [Compound 25, (E)-3-(6-(thiophen-3-yl)pyridin-2-yl)-1-(2-(trifluoromethyl)phenyl) prop-2-en-1-one]	–	–	–	–	–	–	–	0.87 to 3.2	–	lose their shape, shrink in size, form apoptotic bodies, and increased cell death	3.5 ± 1.47	2.1	2.4 ± 0.2	0.87	selectivity versus normal cells (MCF10a) ([11]; MDA-231 and MDA-436 vs MCF10a): greater selectivity towards cancerous cell lines; Effect on non-tumorigenic epithelial cell line MCF 10A ([11]; after 48 hrs.): 3.44 ± 0.4 µM; SI of MCF 10A/MDA-MB231 [18]: 1.8; SI of MCF 10A/MDA-MB436 [18]: 3.9; IC50 ([12]; range, unit inferred, read-out: IC50 (TNBC cell lines)): 0.87 to 2.1 µM; cell migration of MDA-MB-231 (wound healing) ([17]; dose-dependent): significantly reduced cell migration
CC(=O)O[C@@]12CO[C@@H]1C[C@H](O)[C@@]1(C)C(=O)[C@H](O)C3=C(C)[C@@H](OC(=O)[C@H](O)[C@@H](NC(=O)OC(C)(C)C)c4ccccc4)C[C@@](O)([C@@H](OC(=O)c4ccccc4)[C@H]21)C3(C)C [docetaxel, reference compound]	–	–	–	–	–	–	–	–	–	–	11 ± 1.7	6.43 ± 0.6	11.9 ± 2.7	9.8 ± 2	increase of G2/M phase as compared to control [19]: 1.9-2.6 folds

Reference: patent publication US20250170111A1, “PYRIDINE BASED CHALCONE ANALOGS AS THERAPEUTIC AGENTS AND USE THEREOF” (QATAR UNIVERSITY, priority 2023, published 2025)
